Measured values reported in patent publication US6676950B2, “Neurokinin receptor antagonists and methods of use thereof for inhibiting HIV infection” (The Children's Hospital of Philadelphia, priority 2001, dated 2004).

Assays:
[1] = test system: HIV Bal strain; assay: HIV gag mRNA in infected MDM by RT-PCR / real time RT-PCR; assay type: cell-based; conditions: 12 days after infection
Method: HIV Infection: After 2 h incubation with or without the reagents described above, the cells were infected with equal amounts of cell-free HIV based on p24 antigen content (20 ng/10^6 cells) overnight, and then washed to remove unbound virus. Fresh media containing SP and/or CP-96,345 or anti-SP antibody were added to the MDM as described above. The culture media and the reagents were replaced twice weekly. The culture supernatants were harvested for HIV reverse transcriptase (RT) activity determinations. After HIV infection, the MDM were incubated for 8 to 12 days. At the termination of the experiments, cellular RNA was extracted for assessment of HIV gag gene expression using RT-PCR or real time RT-PCR assays.
(§1) Total RNA was isolated from human peripheral blood MDM (10^6 cells) using Tri-Reagent (Molecular Research Center, Cincinnati, Ohio) as we previously reported (16).
Reverse transcription: Total RNA (1 μg) was reverse transcribed using Reverse Transcription System (Promega, Madison, Wis.) with the specific primers (antisense) for HIV gag (5′-[…]-[…]-3′; SEQ ID NO: 1) (27) or CCR5 (5′-[…]-3′; SEQ ID NO: 2) (32) for 1 h at 42° C. RT reactions was terminated by incubating the reaction mixture at 99° C. for 5 min and then kept at 4° C. The resulting cDNA was used as a template for PCR amplification or real time PCR quantification. […]

[2] = test system: CD4, CXCR4 and CD14 receptors; assay: Flow cytometry of CD4, CXCR4 and CD14 receptor expression on MDM; assay type: cell-based, human; conditions: incubated overnight (24 h); direct immunofluorescence
Method: The cells were removed from the culture plate and then resuspended in 100 μl of phosphate-buffered saline (PBS). After incubation with 20 μl of either anti-CCR5-FITC or anti-CXCR4-FITC or anti-CD4-FITC or anti-CD14-FITC for 45 min at 4° C., the cells were washed twice with PBS and fixed with 1% paraformaldehyde in PBS. Fluorescein-conjugated control antibodies were isotype-matched IgG. Fluorescence was analyzed on an EPICS-Elite flow cytometer (Beckman-Coulter Electronics, Hialeah, Fla.).

[3] = test system: CCR5 mRNA; assay: CCR5 mRNA expression in MDM by RT-PCR / real-time RT-PCR; assay type: cell-based, human; conditions: for relative CCR5 mRNA level (real-time RT-PCR): 4 hours
Method: as §1
Reverse transcription: Total RNA (1 μg) was reverse transcribed using Reverse Transcription System (Promega, Madison, Wis.) with the specific primers (antisense) for HIV gag (5′-[…]-[…]-3′; SEQ ID NO: 1) (27) or CCR5 (5′-[…]-3′; SEQ ID NO: 2) (32) for 1 h at 42° C. RT reactions was terminated by incubating the reaction mixture at 99° C. for 5 min and then kept at 4° C. The resulting cDNA was used as a template for PCR amplification or real time PCR quantification.
Polymerase chain reaction (PCR) analysis: PCR amplification of CCR5 and HIV gag cDNA was performed with one tenth of the cDNA for 35 cycles (CCR5) (32) or 40 cycles (gag) (27) using AmpliTaq Gold (Perkin ElmerCetus, Foster City, Calif.) in a GeneAmp PCR System 2400 (Perkin Elmer-Cetus). β-Actin was used as a control to monitor the amount and integrity of RNA in each sample (Clontech, Palo Alto, Calif.). Real time PCR was performed with one tenth of cDNA using ABI Prism 7700 Sequence Detection System (Perkin Elmer). The reaction mixture contained 0.25 mM of dNTPs, AmpliTaq Gold (1.5 U), 5 mM of MgCl2, 50 pmole of each of the two primers (SK38: 5′-[…]-3′(SEQ ID NO: 3); SK39: 5′-[…]-3′; SEQ ID NO: 4), 20 pmole of the molecular beacon probe (SK19: 5′[…]-3′; SEQ ID NO: 5) labeled with FAM (a fluorophore) at its 5′ end and DABCYL (a quencher) at the 3′end. The cycle conditions were 95° C. 10 min followed by 40 cycles of 95° C. 15 sec and 60° C. 1 min. The known amounts of HIV DNA isolated from ACH-2 cells were used as standard controls. All standards and samples were run in duplicates. HIV gag, CCR5, β-Actin primer pairs and the probe (SK19) were synthesized by Integrated DNA Technologies, Inc. (Coralville, Ind.).

[4] = test system: luciferase-encoding HIV virions pseudotyped with ADA Env (CCR5-dependent); assay: Pseudotype reporter virus entry assay, ADA Env; assay type: cell-based
Method: (§2) Pseudotype reporter virus entry assay: Recombinant luciferase-encoding HIV virions pseudotyped with Env from the M-tropic ADA (CCR5-dependent) and amphitropic murine leukemia virus (MLV) (CCR5-independent) were used to study HIV infection of MDM incubated with or without CP-96,345 or R-113281. The Env-deleted luciferase reporter plasmid PNL-Luc-E-R+ (kindly provided by N. Landau) was cotransfected into 293T cells along with plasmids encoding the ADA or MLV Env genes as previously described (31). Supernatants were collected 48 h later, assayed for p24^Gag antigen content, and frozen at −80° C. MDM (2.5×10^5 cells/well, in 48-well plates) were incubated overnight with or without CP-96,345 or R-113281 and then infected using 20 ng of p24^Gag antigen equivalent of each pseudotype HIV per well, in the presence of polybrene (7.5 μg/ml). At 72 h postinfection, the cells were lysed in 150 μl of 0.5% Triton-X-100 in PBS. Lysate (50 μl) was mixed with an equal volume of luciferase substrate (Promega, […].) and luciferase activity was determined in a microtiter plate luminometer (Dynex Technologies, Chantilly, Va.). The results were expressed as relative light units (RLU) in CP-96,345-treated or R-113281-treated and infected MDM as a percentage of that in untreated and infected MDM.

[5] = test system: luciferase-encoding HIV virions pseudotyped with MLV Env (CCR5-independent); assay: Pseudotype reporter virus entry assay, MLV Env; assay type: cell-based
Method: as §2

[6] = test system: TNF-α; assay: LPS-stimulated TNF-α production in MDM by ELISA; assay type: cell-based, human; conditions: 10^−9 to 10^−7M; LPS 1 ng/ml; 24 h
Method: In order to determine the role of CP-96,345 in the regulation of cytokine secretion, 7-day-cultured MDM were incubated with or without CP-96,345 (10^−9 to 10^−7M) and/or LPS (1 ng/ml) for 24 h. The culture supernatants were collected to determine TNF-A and IL-6 levels by ELISA. The ELISA kits were purchased from Endogen, Inc. (Woburn, Mass.).

[7] = test system: SP mRNA; assay: SP mRNA expression in MDM by real-time RT-PCR; assay type: cell-based, human; conditions: 4 hours; percentage of untreated MDM
Method: FIG. 17. A graph showing the effect of CP-96,345 on SP mRNA expression in MDM. The MDM were incubated with (+) or without (−) the NK-1R antagonist at the indicated concentration for 4 hours. The SP mRNA levels were determined by a real-time RT-PCR. The SP mRNA levels in the CP-96,345 treated MDM are expressed as a percentage of that in untreated MDM which are defined as 100%.
The effect of CP-96,345 on SP mRNA expression in MDM was also determined. The MDM were incubated with (+) or without (−) the NK-1R antagonist at the indicated concentration for 4 hours. The SP mRNA levels were determined by a real-time RT-PCR.

[8] = CP-96,345 10^−8 and 10^−7 M overnight pretreatment
[9] = R-113281 10^−7 and 10^−6 overnight pretreatment

| Compound | HIV gag mRNA expression (RT-PCR) ([1]; 10^−11 to 10^−7 M) | HIV gag gene mRNA copy numbers (real time RT-PCR) ([1]; same samples) | CD4, CXCR4 and CD14 receptor expression on MDM [2] | CCR5 mRNA in MDM (RT-PCR) ([3]; 10^−8 to 10^−6M, 3 h) | relative CCR5 mRNA level (real-time RT-PCR) ([3]; CP-96,345 10^−7 M to 10^−6 M) | ADA Env-pseudotyped HIV infection of MDM (luciferase activity) [4, 8] | MLV Env-pseudotyped HIV infection of MDM (luciferase activity) [5, 8] | LPS-stimulated TNF-A production in MDM [6] | SP mRNA expression in MDM (real-time RT-PCR) [7] | relative CCR5 mRNA level (real-time RT-PCR) ([3]; R-113281 10^−8 M to 10^−6 M) | ADA Env-pseudotyped HIV infection of MDM (luciferase activity) [4, 9] | MLV-Env pseudotyped HIV infection of MDM (luciferase activity) [5, 9] |
| --- | --- | --- | --- | --- | --- | --- | --- | --- | --- | --- | --- | --- |
| COc1ccccc1CN[C@H]1C2CCN(CC2)[C@H]1C(c1ccccc1)c1ccccc1 [CP-96,345, [2S,3S)-cis-2-(diphenylmethyl)-N-[(2-methoxyphenyl)-methyl]-1-azabicyclo [[2.2.2]-octan-3-amine]] | potently inhibited | significantly suppress | only CCR5 expression was down-regulated | down-regulated | significantly down-regulated | inhibited | failed to block | attenuated | significantly inhibited | – | – | – |
| COc1cc(C(=O)N2CCO[C@](CCN3CCC4(CC3)c3ccccc3C[S@+]4[O-])(c3ccc(Cl)c(Cl)c3)C2)cc(OC)c1OC.Cl [R-113281] | – | – | – | – | – | – | – | – | – | significantly down-regulated | inhibited | failed to block |
